Here are results for 13 compounds from patent US4851518A, “Di and tri-O-acetyl-"O-iso-valeryl-23-O-demycinosyl tylosins, hydrazone derivatives thereof and processes for their preparation” (priority 1985, dated 1989).

Broadly, the AUC is the area under the concentration-time curve, a measure of exposure. Low values mean low exposure, high ones high exposure.

Series [1] can be described thus: Serum levels IV in mice (AUCs, 0-3h.), cylinder cup method. To be noted: for AUC at 3 h: mouse, in vivo, intravenous single bolus 100 mg./kg.; for AUC at 3 h / serum levels compared with erythromycin, rosaramicin, tylosin, 3-O-acetyl-4"-O-iso-valeryltylosin, 3-O-acetyl-23-O-demycinosyl-4"-O-iso-valeryltylosin, intravenously to mice: 10 mg./ml. in vehicle; for serum levels compared with erythromycin, rosaramicin, tylosin, 3-O-acetyl-4"-O-iso-valeryltylosin, 3-O-acetyl-23-O-demycinosyl-4"-O-iso-valeryltylosin, intravenously to mice: 100 mg./kg. The format is in vivo, male mice (Carworth CF-1). As to the method:
(§1) The serum levels of the compounds of this invention were determined in male mice (Carworth CF-1) weighing 18-20 g. each, and squirrel monkeys weighing ca. 1 kg. each. Groups of six mice were given aqueous solutions of the drugs intravenously as single bolus doses of 100 mg./kg., and groups of six monkeys were given the drugs orally as a single dose of 20, or 50 mg./kg. After 1, 3, 5, 10, 20, 30, 45, 60, 90, 120 and 180 min., mice were killed by cutting the jugular vein and the blood allowed to drain into 8 mm. (diameter) tubes which had been standing in a ice water bath. At each time point, blood from the group of mice was pooled. For monkeys, blood samples were taken after 15, 30, 45, 60, 90, 120, 180, 240 and 360 minutes and were not pooled. The samples were left to clot at room temperature for 15 min. After clotting, the samples were centrifuged for 10 min. Serum was removed and put into another test tube in an ice water bath, until antibiotic levels were determined by a cylinder cup method, with either Bacillus subtilis ATCC 6633, or Micrococcus luteus ATCC 9431 as the test organisms. Stock solutions of each antibacterial were prepared daily in the appropriate vehicle and diluted in homologous serum to prepare a standard curve. Serum samples, diluted where necessary in the appropriate serum, were compared to a standard curve of known potency by standard assay procedures. All assays were done at least twice.
(§2) AUCs (areas under the curves) were obtained from serum level vs. time data by the trapezoidal rule.

Series [2] in a line: Serum levels PO in squirrel monkeys (AUCs, 0-6h.), cylinder cup method. To be noted: for AUC at 6 h: monkey, po. Format: in vivo. As to the method: as §1, with “Serum was removed and put into another test tube in an ice water bath, until antibiotic levels were determined by a cylinder cup method, with either Bacillus subtilis ATCC 6633, or Micrococcus luteus ATCC 9431 as the test organisms.” left out
as §2

For series [3] the following is noted: cited from earlier work.
The mark [4] stands for this setting: in vivo, 20 mg/kg, oral single dose 20 mg./kg., 20 mg./ml. in PEG 40 castor oil/lactic acid vehicle.
The mark [5] stands for this setting: serum, 20 mg/kg, oral single dose 20 mg./kg., 20 mg./ml. in PEG 40 castor oil/lactic acid vehicle.
[6] abbreviates: serum, 20 mg/kg, oral single dose 20 mg./kg., 3.5 mg./ml. in vehicle, crossover experiment.

Compound `CC[C@H]1OC(=O)[C@H](C)[C@@H](O[C@H]2C[C@@](C)(OC)[C@@H](O)[C@H](C)O2)[C@H](C)[C@@H](O[C@@H]2O[C@H](C)C[C@H](N(C)C)[C@H]2O)[C@](C)(O)C[C@@H](C)C(=O)[C@H](C)[C@@H](O)[C@]1(C)O` [I, Erythromycin, reference compound] had an AUC at 3 h in series [1] of 36100 ng·h/mL. Besides, the AUC at 6 h in series [2] (in vivo, 20 mg/kg, oral single dose 20 mg./kg., 3.5 mg./ml. in vehicle) worked out at 1500 ng·h/mL; in series [2] (in vivo, 20 mg/kg, oral single dose 20 mg./kg., 10 mg./ml. in vehicle), 4800 ng·h/mL; in series [2] (setting [4]) it was 4900 ng·h/mL.
Regarding `CC[C@H]1OC(=O)C[C@@H](O)[C@H](C)[C@@H](O[C@@H]2O[C@H](C)C[C@H](N(C)C)[C@H]2O)[C@@H](CC=O)C[C@@H](C)C(=O)/C=C/[C@]2(C)O[C@H]2[C@@H]1C` [II, Rosaramicin, reference compound], the AUC at 6 h is 2200 ng·h/mL in series [2] (setting [5]) and 6600 ng·h/mL in series [2] (serum, 50 mg/kg, oral single dose 50 mg./kg., 50 mg./ml. in vehicle).
As to `CC[C@H]1OC(=O)C[C@@H](O)[C@H](C)[C@@H](O[C@@H]2O[C@H](C)[C@@H](O[C@H]3C[C@@](C)(O)[C@@H](O)[C@H](C)O3)[C@H](N(C)C)[C@H]2O)[C@@H](CC=O)C[C@@H](C)C(=O)/C=C/C(C)=C/[C@@H]1CO[C@@H]1O[C@H](C)[C@@H](O)[C@@H](OC)[C@H]1OC` [III, Tylosin], in series [1], the AUC at 3 h was found to be 24200 ng·h/mL. For the same compound, the AUC at 6 h turned out to be 2600 ng·h/mL in series [2] (setting [4]) and 15600 ng·h/mL in series [2] (in vivo, 50 mg/kg, oral single dose 50 mg./kg., 50 mg./ml. in vehicle). Further, the “stability in acidic and basic solution” value in series [3] was “readily transformed in acidic and basic solution into aldol condensation and Michael addition products”.
In series [1], `CC[C@H]1OC(=O)C[C@@H](OC(C)=O)[C@H](C)[C@@H](O[C@@H]2O[C@H](C)[C@@H](O[C@H]3C[C@@](C)(O)[C@@H](OC(=O)CC(C)C)[C@H](C)O3)[C@H](N(C)C)[C@H]2O)[C@@H](CC=O)C[C@@H](C)C(=O)/C=C/C(C)=C/[C@@H]1CO[C@@H]1O[C@H](C)[C@@H](O)[C@@H](OC)[C@H]1OC` [IV, 3-O-Acetyl-4"-O-iso-valeryltylosin, reference compound] returned an AUC at 3 h of 52400 ng·h/mL. In addition, the AUC at 6 h in series [2] (setting [6]) was 7600 ng·h/mL; in series [2] (setting [5]) it was 15800 ng·h/mL.
Take `CC[C@H]1OC(=O)C[C@@H](OC(C)=O)[C@H](C)[C@@H](O[C@@H]2O[C@H](C)[C@@H](O[C@H]3C[C@@](C)(O)[C@@H](OC(=O)CC(C)C)[C@H](C)O3)[C@H](N(C)C)[C@H]2O)[C@@H](CC=NN2CCS(=O)(=O)CC2)C[C@@H](C)C(=O)/C=C/C(C)=C/[C@@H]1CO` [IX, 3-O-Acetyl-23-O-demycinosyl-20-deoxo-20-[(4,4-dioxothiomorpholinyl)imino]-4"-O-iso-valeryltylosin]: the AUC at 3 h in series [1] came out at 40100 ng·h/mL. For the same compound, the area under the curve (AUC) at 6 h in series [2] (setting [5]) amounted to 2500 ng·h/mL.
The matching figures for `CC[C@H]1OC(=O)C[C@@H](OC(C)=O)[C@H](C)[C@@H](O[C@@H]2O[C@H](C)[C@@H](O[C@H]3C[C@@](C)(O)[C@@H](OC(=O)CC(C)C)[C@H](C)O3)[C@H](N(C)C)[C@H]2O)[C@@H](CC=O)C[C@@H](C)C(=O)/C=C/C(C)=C/[C@@H]1CO` [V, 3-O-Acetyl-23-O-demycinosyl-4"-O-isovaleryltylosin, reference compound]: 28300 ng·h/mL and 5500 ng·h/mL.
For `CC[C@H]1OC(=O)C[C@@H](OC(C)=O)[C@H](C)[C@@H](O[C@@H]2O[C@H](C)[C@@H](O[C@H]3C[C@@](C)(O)[C@@H](OC(=O)CC(C)C)[C@H](C)O3)[C@H](N(C)C)[C@H]2OC(C)=O)[C@@H](CC=O)C[C@@H](C)C(=O)/C=C/C(C)=C/[C@@H]1CO` [VI, 3,2'-Di-O-acetyl-23-O-demycinosyl-4"-O-iso-valeryltylosin], the “serum levels compared with 3-O-acetyl-4"-O-iso-valeryltylosin, orally to squirrel monkeys” value in series [2] (20 mg./kg., 20 mg./ml. in vehicle) was “slightly lower serum levels”; in series [2] (oral, dose not given), “slightly lower serum levels”. In series [2] (setting [5]), this compound registered an AUC at 6 h of 10400 ng·h/mL.
Consider `CC[C@H]1OC(=O)C[C@@H](OC(C)=O)[C@H](C)[C@@H](O[C@@H]2O[C@H](C)[C@@H](O[C@H]3C[C@@](C)(O)[C@@H](OC(=O)CC(C)C)[C@H](C)O3)[C@H](N(C)C)[C@H]2OC(C)=O)[C@@H](CC=O)C[C@@H](C)C(=O)/C=C/C(C)=C/[C@@H]1COC(C)=O` [VII, 3,23,2'-Tri-O-acetyl-23-O-demycinosyl-4"-O-iso-valeryltylosin], for which, in series [1], the “serum levels compared with erythromycin, rosaramicin, tylosin, 3-O-acetyl-4"-O-iso-valeryltylosin, 3-O-acetyl-23-O-demycinosyl-4"-O-iso-valeryltylosin, intravenously to mice” value is recorded as “serum levels that are superior” and the AUC at 3 h turned out to be 69400 ng·h/mL. The “serum levels compared with erythromycin, rosaramicin, tylosin, 3-O-acetyl-23-O-demycinosyl-4"-O-iso-valeryltylosin, 3-O-acetyl-4"-O-iso-valeryltylosin, intravenously to mice” value in series [1] (intravenous, dose not given) is “higher serum levels”. Moreover, the “serum levels compared with 3-O-acetyl-4"-O-iso-valeryltylosin, orally to squirrel monkeys” value in series [2] (20 mg./kg., 3.5 mg./ml. in vehicle) is reported as “superior serum levels”. In series [2] (setting [6]), the AUC at 6 h amounted to 13500 ng·h/mL. Further, the “serum levels compared with 3-O-acetyl-4"-O-iso-valeryltylosin, orally to squirrel monkeys” value in series [2] (oral, dose not given) is “superior serum levels”.
For `CC[C@H]1OC(=O)C[C@@H](OC(C)=O)[C@H](C)[C@@H](O[C@@H]2O[C@H](C)[C@@H](O[C@H]3C[C@@](C)(O)[C@@H](OC(=O)CC(C)C)[C@H](C)O3)[C@H](N(C)C)[C@H]2O)[C@@H](CC=NN2CCS(=O)(=O)CC2)C[C@@H](C)C(=O)/C=C/C(C)=C/[C@@H]1CO[C@@H]1O[C@H](C)[C@@H](O)[C@@H](OC)[C@H]1OC` [VIII, 3-O-Acetyl-20-deoxo-20-[(4,4-dioxothiomorpholinyl)imino]-4"-O-iso-valeryltylosin], the AUC at 3 h in series [1] was found to be 67600 ng·h/mL. The AUC at 6 h in series [2] (setting [5]) stood at 7500 ng·h/mL.
For `CC[C@H]1OC(=O)C[C@@H](OC(C)=O)[C@H](C)[C@@H](O[C@@H]2O[C@H](C)[C@@H](O[C@H]3C[C@@](C)(O)[C@@H](OC(=O)CC(C)C)[C@H](C)O3)[C@H](N(C)C)[C@H]2OC(C)=O)[C@@H](CC=NN2CCS(=O)(=O)CC2)C[C@@H](C)C(=O)/C=C/C(C)=C/[C@@H]1CO` [X, 3,2'-Di-O-acetyl-23-O-demycinosyl-20deoxo-20-[(4,4-dioxothiomorpholinyl)imino]-4"-O-iso-valeryltylosin] the same measures were 80500 ng·h/mL and 4800 ng·h/mL.
The matching figures for `CC[C@H]1OC(=O)C[C@@H](OC(C)=O)[C@H](C)[C@@H](O[C@@H]2O[C@H](C)[C@@H](O[C@H]3C[C@@](C)(O)[C@@H](OC(=O)CC(C)C)[C@H](C)O3)[C@H](N(C)C)[C@H]2O)[C@@H](CC=NN2CCS(=O)(=O)CC2)C[C@@H](C)C(=O)/C=C/C(C)=C/[C@@H]1COC(C)=O` [XI, 3,23-Di-O-acetyl-23-O-demycinosyl-20-deoxo-20-[(4,4-dioxothiomorpholinyl)imino]-4"-O-iso-valeryltylosin]: 61800 ng·h/mL and 4600 ng·h/mL.
As for `CC[C@H]1OC(=O)C[C@@H](OC(C)=O)[C@H](C)[C@@H](O[C@@H]2O[C@H](C)[C@@H](O[C@H]3C[C@@](C)(O)[C@@H](OC(=O)CC(C)C)[C@H](C)O3)[C@H](N(C)C)[C@H]2OC(C)=O)[C@@H](CC=NN2CCS(=O)(=O)CC2)C[C@@H](C)C(=O)/C=C/C(C)=C/[C@@H]1COC(C)=O` [XII, 3,23,2'-Tri-O-acetyl-23-O-demycinosyl-20-deoxo-20-[(4,4-dioxothiomorpholinyl)imino]-4"-O-iso-valeryltylosin], in series [1], the “serum levels compared with erythromycin, rosaramicin, tylosin, 3-O-acetyl-4"-O-iso-valeryltylosin, 3-O-acetyl-23-O-demycinosyl-4"-O-iso-valeryltylosin, intravenously to mice” value is given as “serum levels that are superior” and the AUC at 3 h was found to be 154000 ng·h/mL. The AUC at 6 h in series [2] (serum, 20 mg/kg, oral single dose 20 mg./kg., 3.5 mg./ml. in vehicle) stood at 3800 ng·h/mL.
For `CC[C@H]1OC(=O)C[C@@H](OC(C)=O)[C@H](C)[C@@H](O[C@@H]2O[C@H](C)[C@@H](O[C@H]3C[C@@](C)(O)[C@@H](OC(=O)CC(C)C)[C@H](C)O3)[C@H](N(C)C)[C@H]2O)[C@@H](CC=NN2CCS(=O)(=O)CC2)C[C@@H](C)C(=O)/C=C/C(C)=C/[C@@H]1COC(=O)Cc1ccccc1` [XIII, 3-O-Acetyl-23-O-demycinosyl-20-deoxo-20-[(4,4-dioxothiomorpholinyl)imino]-23-O-phenylacetyl-4"-O-iso-valeryltylosin], the AUC at 3 h in series [1] worked out at 43400 ng·h/mL.
